The target of the assay is PI3Kδ (PI3Kd) (Homo sapiens (Human), UniProt O00329). The assay is described as follows: PI3K HTRF enzymatic inhibition assay (cell-free), delta isoform. The settings on record: read-out: IC50 PI3Kd HTRF; recombinant PI3K delta, [ATP] 15 μM, [PIP2] 2 μM, 30 min preincubation. Background: Time-resolved FRET reads energy transfer from a long-lived donor to a nearby acceptor.
Chain of PI3Kδ (PI3Kd) (O00329 whole entry, canonical isoform): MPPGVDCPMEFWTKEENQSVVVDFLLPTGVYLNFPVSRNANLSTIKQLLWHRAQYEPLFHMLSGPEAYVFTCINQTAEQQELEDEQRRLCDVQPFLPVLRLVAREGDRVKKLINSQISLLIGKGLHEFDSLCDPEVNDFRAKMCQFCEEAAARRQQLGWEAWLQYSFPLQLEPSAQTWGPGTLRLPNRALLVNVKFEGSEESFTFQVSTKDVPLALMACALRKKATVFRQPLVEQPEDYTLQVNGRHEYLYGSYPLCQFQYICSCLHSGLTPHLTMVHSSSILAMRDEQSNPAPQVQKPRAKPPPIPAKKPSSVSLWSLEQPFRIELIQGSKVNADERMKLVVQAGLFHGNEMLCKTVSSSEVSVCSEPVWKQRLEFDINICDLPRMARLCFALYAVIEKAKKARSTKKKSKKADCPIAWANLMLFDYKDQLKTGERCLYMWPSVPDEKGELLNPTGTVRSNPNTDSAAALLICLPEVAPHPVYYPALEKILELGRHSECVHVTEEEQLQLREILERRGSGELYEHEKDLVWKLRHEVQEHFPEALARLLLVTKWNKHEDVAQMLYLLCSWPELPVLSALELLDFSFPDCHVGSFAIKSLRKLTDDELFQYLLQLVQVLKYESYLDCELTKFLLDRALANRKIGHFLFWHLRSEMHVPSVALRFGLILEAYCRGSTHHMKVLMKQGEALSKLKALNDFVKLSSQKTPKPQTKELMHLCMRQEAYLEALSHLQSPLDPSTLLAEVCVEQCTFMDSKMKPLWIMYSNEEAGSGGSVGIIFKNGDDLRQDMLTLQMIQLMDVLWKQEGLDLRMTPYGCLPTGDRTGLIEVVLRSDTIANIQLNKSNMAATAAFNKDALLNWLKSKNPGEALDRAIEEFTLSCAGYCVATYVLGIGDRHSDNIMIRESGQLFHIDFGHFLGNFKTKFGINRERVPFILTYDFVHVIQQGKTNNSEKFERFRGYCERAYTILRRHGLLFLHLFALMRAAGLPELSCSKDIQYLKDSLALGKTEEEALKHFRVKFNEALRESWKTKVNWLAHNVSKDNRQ
Chain of PI3Kδ (PI3Kd) (P27986 whole entry partner, canonical isoform): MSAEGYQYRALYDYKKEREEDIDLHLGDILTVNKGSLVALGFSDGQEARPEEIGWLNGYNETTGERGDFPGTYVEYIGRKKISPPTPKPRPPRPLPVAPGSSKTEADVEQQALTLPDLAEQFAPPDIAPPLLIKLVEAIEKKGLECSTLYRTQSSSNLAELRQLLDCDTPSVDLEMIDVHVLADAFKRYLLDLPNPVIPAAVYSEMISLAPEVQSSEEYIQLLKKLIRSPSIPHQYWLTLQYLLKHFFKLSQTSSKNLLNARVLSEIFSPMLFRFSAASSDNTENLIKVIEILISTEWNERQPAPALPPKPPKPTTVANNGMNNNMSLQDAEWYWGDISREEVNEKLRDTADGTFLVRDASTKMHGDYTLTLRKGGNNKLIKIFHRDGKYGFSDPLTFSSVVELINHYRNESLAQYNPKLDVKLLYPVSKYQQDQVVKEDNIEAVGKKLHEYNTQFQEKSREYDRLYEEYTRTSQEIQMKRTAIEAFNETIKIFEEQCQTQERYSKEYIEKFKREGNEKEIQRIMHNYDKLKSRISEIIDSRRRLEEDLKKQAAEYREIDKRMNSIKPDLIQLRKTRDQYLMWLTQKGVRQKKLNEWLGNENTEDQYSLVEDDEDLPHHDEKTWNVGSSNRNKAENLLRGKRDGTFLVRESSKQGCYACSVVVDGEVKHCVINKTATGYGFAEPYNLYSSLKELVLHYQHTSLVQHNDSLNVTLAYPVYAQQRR
In general, IC50 refers to the point on the concentration scale where inhibition reaches its midpoint. On to `Cc1ccn2nc([C@H](C)Nc3ncnc4[nH]cc(Sc5ccc(O)cc5)c34)n(-c3ccccc3)c(=O)c12` [Example 97, (S)-2-(1-((5-((4-Hydroxyphenyl)thio)-7H-pyrrolo[2,3-d]pyrimidin-4-yl)amino)ethyl)-5-methyl-3-phenylpyrrolo[2,1-f][1,2,4]triazin-4(3H)-one], for which the IC50 turned out to be 2 nM.
As for `Cc1ccn2nc([C@H](C)Nc3ncnc4[nH]cc(-c5cccc(Cl)c5O)c34)n(-c3ccccc3)c(=O)c12` [Example 104, (S)-2-(1-((5-(3-Chloro-2-hydroxyphenyl)-7H-pyrrolo[2,3-d]pyrimidin-4-yl)amino)ethyl)-5-methyl-3-phenylpyrrolo[2,1-f][1,2,4]triazin-4(3H)-one], the IC50 came out at 1 nM.
The value for `Cc1ccn2nc([C@H](C)Nc3ncnc(N)c3-c3cccc(NS(=O)(=O)c4ccc(O)cc4)c3)n(-c3ccccc3)c(=O)c12` [Example 106, (S)—N-(3-(4-Amino-6-((1-(5-methyl-4-oxo-3-phenyl-3,4-dihydropyrrolo[2,1-f][1,2,4]triazin-2-yl)ethyl)amino)pyrimidin-5-yl)phenyl)-4-hydroxybenzenesulfonamide] was 0.4 nM; that for `Cc1ccn2nc([C@H](C)Nc3ncnc4[nH]cc(-c5cnn(CCN(C)C)c5)c34)n(-c3ccccc3)c(=O)c12` [Example 107, (S)-2-(1-((5-(1-(2-(Dimethylamino)ethyl)-1H-pyrazol-4-yl)-7H-pyrrolo[2,3-d]pyrimidin-4-yl)amino)ethyl)-5-methyl-3-phenylpyrrolo[2,1-f][1,2,4]triazin-4(3H)-one] was 2 nM.
For the compound `Cc1ccn2nc([C@H](C)Nc3ncnc(N)c3-c3cncc(C(F)(F)F)c3)n(-c3ccccc3)c(=O)c12` [Example 114, (S)-2-(1-((6-Amino-5-(5-(trifluoromethyl)pyridin-3-yl)pyrimidin-4-yl)amino)ethyl)-5-methyl-3-phenylpyrrolo[2,1-f][1,2,4]triazin-4(3H)-one], the IC50 was determined as 0.5 nM.
In the case of `Cc1ccn2nc([C@H](C)Nc3ncnc(N)c3-c3cnn(CCO)c3)n(-c3ccccc3)c(=O)c12` [Example 116, (S)-2-(1-((6-Amino-5-(1-(2-hydroxyethyl)-1H-pyrazol-4-yl)pyrimidin-4-yl)amino)ethyl)-5-methyl-3-phenylpyrrolo[2,1-f][1,2,4]triazin-4(3H)-one] it was 1 nM; in that of `Cc1ccn2nc([C@H](C)Nc3ncnc(N)c3C(=O)N3CC[C@H](O)C3)n(-c3ccccc3)c(=O)c12` [Example 119, 3-((S)-1-((6-Amino-5-((S)-3-hydroxypyrrolidine-1-carbonyl)pyrimidin-4-yl)amino)ethyl)-8-methyl-2-phenylpyrrolo[2,1-f][1,2,4]triazin-1 (2H)-one], 156 nM; in that of `CCNc1nnc(-c2c[nH]c3ncnc(N[C@@H](C)c4nn5ccc(C)c5c(=O)n4-c4ccccc4)c23)s1` [Example 120, (S)-2-(1-((5-(5-(Ethylamino)-1,3,4-thiadiazol-2-yl)-7H-pyrrolo[2,3-d]pyrimidin-4-yl)amino)ethyl)-5-methyl-3-phenylpyrrolo[2,1-f][1,2,4]triazin-4(3H)-one], 0.4 nM.
In the case of `Cc1ccn2nc([C@H](C)Nc3ncnc4[nH]cc(-c5cc(O)cc(NS(=O)(=O)c6ccc(O)cc6)c5)c34)n(-c3ccccc3)c(=O)c12` [Example 125, (S)-4-Hydroxy-N-(3-hydroxy-5-(4-((1-(5-methyl-4-oxo-3-phenyl-3,4-dihydropyrrolo[2,1-f][1,2,4]triazin-2-yl)ethyl)amino)-7H-pyrrolo[2,3-d]pyrimidin-5-yl)phenyl)benzenesulfonamide] it was 0.7 nM; in that of `Cc1ccn2nc([C@H](C)Nc3ncnc(N)c3-c3cncc(OC(F)F)c3)n(-c3ccccc3)c(=O)c12` [Example 127, (S)-2-(1-((6-Amino-5-(5-(difluoromethoxy)pyridin-3-yl)pyrimidin-4-yl)amino)ethyl)-5-methyl-3-phenylpyrrolo[2,1-f][1,2,4]triazin-4(3H)-one], 0.4 nM.
